Read-outs that look alike come from different tables or passages of the source.

The test system of data set [1] is Stress Ulcer. As to the kind of experiment: Stress Ulcer. The data set is classed as in vivo, male Wistar rats. To be noted: oral, 1×10^-3 mole in 0.5% CMC, before restraint and water dipping at 23° C. for 7 hours. As for the experimental part: After male Wistar rats weighing about 170 g was fasted for 24 hours, the rats were restrained in a stress cage and dipped in water bath at 23° C. till chest of the animals. After 7 hours, the rats were killed and the stomach was isolated. Into the isolated stomach 10% formalin (8 ml) was poured and settled. The stomach was cut open at the greater curvature, and the length of each ulcer on the membrane was measured. Sum of the length of all ulcers was shown as ulcer index (UI). The test compound was orally administered to the rats before restraint in a stress cage in the form of 0.5% CMC suspension in a concentration of 1×10^-3 mole. As a control, only the solvent (CMC solution) was administered likewise.
The inhibitory ratio (%) of stress ulcer of the test compounds was calculated by the following equation: [formula]
(§1) In the table, the inhibitory ratio (%) was evaluated as follows: […]

Data set [2] is described as follows: Acute Toxicity. To be noted: rat, in vivo, po, male Wistar rats. As for the experimental part: The test compounds were orally administered to male Wistar rats, and the half lethal dose (LD50) was measured.
The test system of data set [3] is Indomethacin-Induced Ulcer. The experiment in a line: Indomethacin-Induced Ulcer. The data set is classed as in vivo, male Wistar rats. The conditions noted are these: oral, 3×10^-4 mole in 0.5% CMC, 30 min before indomethacin 20 mg/kg s.c. As to the method:
After male Wistar rats weighing about 160 g was fasted for 24 hours, indomethacin was subcutaneously administered to the rats in a dose of 20 mg/kg in the form of a suspension in a mixture of 0.5% CMC and a small amount of Tween 80 (i.e. polyoxyethylene sorbitan monooleate). After 5 hours, the rats were killed and the stomach was isolated. Into the isolated stomach 10% formalin (8 ml) was poured and settled. The stomach was cut open at the greater curvature, and the length of each ulcer on the membrane was measured, based on which results the inhibitory ratio of the indomethacin-induced ulcer of the test compounds was calculated in the same manner as in Pharmacological Test 2. The test compound was orally administered to the rats in a concentration of 3×10^-4 mole in the form of 0.5% CMC suspension 30 minutes before the administration of indomethacin.
as §1

The test system of data set [4] is gastric juice secretion. As to the kind of experiment: Shay rat pylorus ligation method (gastric juice secretion-inhibiting activity). The data set is classed as in vivo, male Wistar rats. To be noted: sc, 4 h, 100 mg/kg s.c., 30 min before pylorus ligation, measured 4 hours after ligation. As to the method:
The pharmacological activities of the compouns (I) were tested by a Shay rat pylorus ligation method (cf. H. Shay et al: Gastroenterol., Vol. 5, page 43, 1945) which is the most popular method for testing of gastric juice secretion-inhibiting activity. The test was carried out by using male Wistar rats, weighing about 170 g and fasting for 24 hours.
Test compounds were administered 30 minutes before the pylorus ligation in a dose of 100 mg/kg in subcutaneous route, and the volume, total acidity and/or pepsin activity of the gastric juice were measured 4 hours after the ligation. As a control, a saline solution was administered instead of the test compound. The inhibitory ratio (%) of the test compounds were calculated when the inhibitory activities of the control were counted as zero (0).
as §1

For data set [5], the system named is Acetic Acid-Induced Ulcer. As to the kind of experiment: Acetic Acid-Induced Ulcer. The data set is classed as in vivo, Male Wistar rats. To be noted: oral, twice a day for 12 days. As for the experimental part: Male Wistar rats were used. Under anestherization, the abdomen of rats were opened to expose stomach, and then 30% aqueous acetic acid (0.015 ml) was injected below serous membrane which was located at boundary area of true gastric gland and pyloric glands and thereafter the abdomen was closed, by which an experimental ulcer was induced.
The test compound was orally administered in the dose as shown in Table 3 in the form of 0.5% CMC suspension or solution twice a day for 12 days after the acetic acid-induced ulcer was produced. As a control, only the solvent (CMC solution) was administered likewise.
After the reproduced mucous membrane was removed around the ulcers, the open area of ulcers was measured with a micrometer, and the sum of ulcer area was shown as ulcer index (UI). The inhibitory ratio (%) of acetic acid-induced ulcer of the test compounds was calculated in the same manner as in Pharmacological Test 2.
as §1

Where [6] appears, read: saline control = 0, read-out: Inhibitory ratio, Volume of gastric juice.
Where [7] appears, read: saline control = 0, read-out: Inhibitory ratio, Pepsin activity.
Setting [8] is: saline control = 0, read-out: Inhibitory ratio, Total acidity.

For the compound `CCNC(=O)CCCSCc1nnnn1CC` [Compound 17, N-Ethyl-4-(1-ethyl-1,2,3,4-tetrazol-5-yl)-methylthio-butyramide], in data set [1], the “Inhibitory ratio of stress ulcer” value is “+ (30 to less than 60%)”. In data set [2], this compound gave an LD50 of more than 500 mg/kg.

As to `COC1CCC(NC(=O)CCCSc2nnnn2C)CC1` (stereo not drawn) [Compound 45, N-(4-Methoxycyclohexyl)-4-(1-methyl-1,2,3,4-tetrazol-5-yl)thio-butyramide], the “Inhibitory ratio of indomethacin-induced ulcer” value in data set [3] is given as “++ (more than 60%)”. The inhibition in vivo at 100 mg/kg in data set [4] (setting [6]) was 10 to 50%.

Consider “N,N-Dicyclohexyl-5-(1-methyl-1,2,3,4-tetrazol-5-yl)thio-butyramide [Compound 58]”, for which, in data set [5] (20 mg/kg.day), the “Inhibitory ratio of acetic acid-induced ulcer” value is on record as “+ (30 to less than 60%)”.

On to `CCN(C(=O)CCCCc1nnnn1-c1ccccc1)C1CCCCC1` [Compound 4, N-Ethyl-N-cyclohexyl-5-(1-phenyl-1,2,3,4-tetrazol-5-yl)valeramide], for which the inhibition in vivo at 100 mg/kg in data set [4] (setting [7]), in data set [4] (setting [8]) and in data set [4] (setting [6]) was 10 to 50% throughout. The “Inhibitory ratio of stress ulcer” value in data set [1] is given as “++ (more than 60%)”. This compound came in with a 50% lethal dose (LD50) in data set [2] of more than 500 mg/kg.

For `CCN(CC)C(=O)CCCCc1nnnn1C1CCCCC1` [Compound 5, N,N-Diethyl-5-(1-cyclohexyl-1,2,3,4-tetrazol-5-yl)valeramide], the inhibition in vivo at 100 mg/kg in data set [4] (setting [7]), in data set [4] (setting [8]) and in data set [4] (setting [6]) was 10 to 50% in each case. Further, the LD50 in data set [2] is more than 500 mg/kg.

On to `CCN(C(=O)CCCSc1nnnn1C)C1CCCCC1` [Compound 2, N-Ethyl-N-cyclohexyl-4-(1-methyl-1,2,3,4-tetrazol-5-yl)thio-butyramide], for which the inhibition in vivo at 100 mg/kg in data set [4] (setting [7]), in data set [4] (setting [8]) and in data set [4] (setting [6]) was more than 50% each time. In data set [2], this compound showed an LD50 of more than 500 mg/kg. In addition, the “Inhibitory ratio of acetic acid-induced ulcer” value in data set [5] (20 mg/kg.day) is listed as “+ (30 to less than 60%)”.

Turning to `COc1ccc(CCNC(=O)CCCSc2nnnn2C)cc1OC` [Compound 26, N-[2-(3,4-Dimethoxyphenyl)ethyl]-4-(1-methyl-1,2,3,4-tetrazol-5-yl)thio-butyramide], the inhibition in vivo at 100 mg/kg in data set [4] (setting [7]) is less than 10%; in data set [4] (setting [8]), 10 to 50%; in data set [4] (setting [6]) it was more than 50%. The “Inhibitory ratio of acetic acid-induced ulcer” value in data set [5] (20 mg/kg.day) is “+ (30 to less than 60%)”.

`CCN(C(=O)CCCSc1nnnn1C)c1ccccc1` [Compound 9, N-Ethyl-N-phenyl-4-(1-methyl-1,2,3,4-tetrazol-5-yl)thio-butyramide] displayed an LD50 in data set [2] of more than 500 mg/kg. Further, the “Inhibitory ratio of acetic acid-induced ulcer” value in data set [5] (20 mg/kg.day) was “+ (30 to less than 60%)”.

On to `Cn1nnnc1SCCCC(=O)NC1CCCCC1` [Compound 6, N-Cyclohexyl-4-(1-methyl-1,2,3,4-tetrazol-5-yl)thio-butyramide], for which the inhibition in vivo at 100 mg/kg in data set [4] (setting [7]), in data set [4] (setting [8]) and in data set [4] (setting [6]) was 10 to 50% in each case. For the same compound, the LD50 in data set [2] was more than 500 mg/kg.

With `CN(C)C(=O)CCCSc1nnnn1C` [Compound 28, N,N-Dimethyl-4-(1-methyl-1,2,3,4-tetrazol-5-yl)thio-butyramide], the inhibition in vivo at 100 mg/kg in data set [4] (setting [7]) is 10 to 50%; in data set [4] (setting [8]), more than 50%; in data set [4] (setting [6]) it was more than 50%. For the same compound, in data set [5] (20 mg/kg.day), the “Inhibitory ratio of acetic acid-induced ulcer” value was “+ (30 to less than 60%)”.

For “N-Ethyl-N-cyclooctyl-5-(1-methyl-1,2,3,4-tetrazol-5-yl)thio-butyramide [Compound 56]”, in data set [5] (20 mg/kg.day), the “Inhibitory ratio of acetic acid-induced ulcer” value was “+ (30 to less than 60%)”.

For the compound `COc1ccc(CCN(C(=O)CCCSc2nnnn2C)C2CCCCC2)cc1OC` [Compound 11, N-Cyclohexyl-N-[2-(3,4,-dimethoxyphenyl)-ethyl]-4-(1-methyl-1,2,3,4-tetrazol-5-yl)thio-butyramide], the inhibition in vivo at 100 mg/kg in data set [4] (setting [7]), in data set [4] (setting [8]) and in data set [4] (setting [6]) was 10 to 50% each time. The compound further gave an LD50 in data set [2] of more than 500 mg/kg.

Regarding `CN(C)c1ccc(NC(=O)CCCSc2nnnn2C)cc1` [Compound 7, N-[4-(N,N-dimethylamino)phenyl]-4-(1-methyl-1,2,3,4-tetrazol-5-yl)thio-butyramide], the inhibition in vivo at 100 mg/kg was 10 to 50% in data set [4] (setting [7]), 10 to 50% in data set [4] (setting [8]) and more than 50% in data set [4] (setting [6]). The “Inhibitory ratio of stress ulcer” value in data set [1] is listed as “++ (more than 60%)”. This compound also had an LD50 in data set [2] of more than 500 mg/kg.

As for `Cn1nnnc1SCCCC(=O)NCc1ccco1` [Compound 13, N-Furfuryl-4-(1-methyl-1,2,3,4-tetrazol-5-yl)thio-butyramide], the inhibition in vivo at 100 mg/kg in data set [4] (setting [7]), in data set [4] (setting [8]) and in data set [4] (setting [6]) was 10 to 50% in each case. In addition, the LD50 in data set [2] is more than 500 mg/kg.

Turning to `COC(=O)CCCSc1nnnn1C` [Compound 37, Methyl 4-(1-methyl-1,2,3,4-tetrazol-5-yl)-thio-butyrate], the inhibition in vivo at 100 mg/kg in data set [4] (setting [6]) fell in the range of 10 to 50%. Also, in data set [5] (20 mg/kg.day), the “Inhibitory ratio of acetic acid-induced ulcer” value is given as “+ (30 to less than 60%)”.

Regarding `CCn1nnnc1CSCCC(N)=O` [Compound 19, 3-(1-Ethyl-1,2,3,4-tetrazol-5-yl)methylthio-propionamide], the LD50 in data set [2] is more than 500 mg/kg. Further, the “Inhibitory ratio of acetic acid-induced ulcer” value in data set [5] (3 × 10^-5 mole/kg.day) is on record as “+ (30 to less than 60%)”.

As to `CCc1ccc(-n2nnnc2CSCCC(=O)N(CC)CC)cc1` [Compound 12, N,N-Diethyl-3-[1-(4-ethylphenyl)-1,2,3,4-tetrazol-5-yl]methylthio-propionamide], the inhibition in vivo at 100 mg/kg in data set [4] (setting [7]), in data set [4] (setting [8]) and in data set [4] (setting [6]) was 10 to 50% each time. In data set [2], this compound gave a median lethal dose (LD50) of more than 500 mg/kg.

For `CCCCN(C(=O)CCCSc1nnnn1C)C1CCCCC1` [Compound 55, N-Cyclohexyl-N-butyl-5-(1-methyl-1,2,3,4-tetrazol-5-yl)thio-butyramide], the “Inhibitory ratio of acetic acid-induced ulcer” value in data set [5] (20 mg/kg.day) was “+ (30 to less than 60%)”.

In the case of `CCN(CC)C(=O)CCCSc1nnnn1C` [Compound 1, N,N-Diethyl-4-(1-methyl-1,2,3,4-tetrazol-5-yl)thio-butyramide], the inhibition in vivo at 100 mg/kg in data set [4] (setting [7]), in data set [4] (setting [8]) and in data set [4] (setting [6]) was more than 50% throughout. For the same compound, the “Inhibitory ratio of stress ulcer” value in data set [1] is recorded as “++ (more than 60%)”. Besides, in data set [2], the LD50 is more than 500 mg/kg.

`CCN(C(=O)CCCSc1nnnn1C)c1ccccn1` [Compound 10, N-Ethyl-N-(2-pyridyl)-4-(1-methyl-1,2,3,4-tetrazol-5-yl)thio-butyramide]: the inhibition in vivo at 100 mg/kg in data set [4] (setting [8]) was 10 to 50%. The compound also showed an LD50 in data set [2] of more than 500 mg/kg.

As for `CCN(C(=O)CCCCSc1nnnn1C)C1CCCCC1` [Compound 3, N-Ethyl-N-cyclohexyl-5-(1-methyl-1,2,3,4-tetrazol-5-yl)thio-valeramide], the values for the inhibition in vivo at 100 mg/kg in data set [4] (setting [7]), in data set [4] (setting [8]) and in data set [4] (setting [6]) were 10 to 50%, 10 to 50% and more than 50%, respectively. This compound also had an LD50 in data set [2] of more than 500 mg/kg.

With `CCNC(=O)CCSCc1nnnn1-c1ccccc1` [Compound 16, N-Ethyl-3-(1-phenyl-1,2,3,4-tetrazol-5-yl)-methylthio-propionamide], the “Inhibitory ratio of stress ulcer” value in data set [1] was “+ (30 to less than 60%)”. In data set [2], this compound showed an LD50 of more than 500 mg/kg.
